# Laboratory results reported in PubChem BioAssay (NCI).
#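 Grown in 96-well plates, cells were treated for 48 hours with each compound at five concentrations. Insufficient inhibition: endpoint recorded as highest concentration tested. Abbreviation: GI50, concentration required for 50% inhibition of growth. TGI marks complete inhibition of growth.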
# Columns and labels:
# Test in all cases: inhibition of tumour cell growth, NCI panel, 48 h
# [1] = test system: HOP-62 NSCLC
# [2] = test system: SK-OV-3 ovarian
# [3] = test system: KM12 colon
# [4] = test system: UACC-62 melanoma
# [5] = test system: HOP-92 NSCLC
# [6] = test system: EKVX NSCLC
# [7] = test system: NCI-H226 lung
# [8] = test system: HL-60(TB) leukemia
# [9] = test system: NCI-H23 lung
# [10] = test system: RPMI-8226 leukemia
# [11] = test system: UO-31 renal
# [12] = test system: CAKI-1 renal
# [13] = test system: OVCAR-4 ovarian
# [14] = test system: OVCAR-8 ovarian
# [15] = test system: SF-268 CNS
# [16] = test system: U251 CNS
# [17] = test system: SN12C renal
# [18] = test system: NCI-H460 lung
# [19] = test system: MOLT-4 leukemia
# [20] = test system: NCI/ADR-RES ovarian
# [21] = test system: HCT-15 colon
# [22] = test system: K-562 leukemia
# [23] = test system: NCI-H522 lung
# [24] = test system: BT-549 breast
# [25] = test system: HCT-116 colon
# [26] = test system: HS 578T breast
# [27] = test system: SK-MEL-2 melanoma
# [28] = test system: COLO 205 colon
# [29] = test system: SNB-75 CNS
# [30] = test system: LOX IMVI melanoma
# [31] = test system: TK-10 renal
# [32] = test system: M14 melanoma
# [33] = test system: RXF 393 renal
# [34] = test system: A549 NSCLC
# [35] = test system: 786-0 renal
# [36] = test system: SW-620 colon
# [37] = test system: SF-295 CNS
# [38] = test system: MALME-3M melanoma
# [39] = test system: HT29 colon
# [40] = test system: MDA-MB-231 breast
# [41] = test system: SK-MEL-28 melanoma
# [42] = test system: PC-3 prostate
# [43] = test system: DU-145 prostate
# [44] = test system: OVCAR-3 ovarian
# [45] = test system: SK-MEL-5 melanoma
# [46] = test system: SNB-19 CNS
# [47] = test system: SF-539 CNS
# [48] = test system: A498 renal
# [49] = test system: T-47D breast
# [50] = test system: MDA-MB-435
# [51] = test system: HCC-2998 colon
# [52] = test system: ACHN renal
# [53] = test system: OVCAR-5 ovarian
# [54] = test system: UACC-257 melanoma
# [55] = test system: CCRF-CEM leukemia
# [56] = test system: MCF7 breast
# [57] = test system: IGROV1 ovarian
# [58] = test system: SR leukemia
compound,measurement,setting,value
COc1cc2c(cc1NC(=O)C(Cl)Cl)-c1ccc(NC(=O)C(Cl)Cl)cc1C2,GI50,[1],587 nM
same,TGI,[1],1640 nM
same,GI50,[2],6670 nM
same,TGI,[2],20600 nM
same,GI50,[3],336 nM
same,TGI,[3],1170 nM
same,GI50,[4],586 nM
same,TGI,[4],2070 nM
same,GI50,[5],1150 nM
same,TGI,[5],3540 nM
same,GI50,[6],347 nM
same,TGI,[6],1320 nM
same,GI50,[7],6040 nM
same,TGI,[7],17100 nM
same,GI50,[8],568 nM
same,TGI,[8],3370 nM
same,GI50,[9],2520 nM
same,TGI,[9],12500 nM
same,GI50,[10],374 nM
same,TGI,[10],1210 nM
same,GI50,[11],730 nM
same,TGI,[11],2750 nM
same,GI50,[12],1010 nM
same,TGI,[12],4040 nM
same,GI50,[13],1040 nM
same,TGI,[13],5560 nM
same,GI50,[14],439 nM
same,TGI,[14],1680 nM
same,GI50,[15],384 nM
same,TGI,[15],1940 nM
same,GI50,[16],245 nM
same,TGI,[16],708 nM
same,GI50,[17],4670 nM
same,TGI,[17],19600 nM
same,GI50,[18],250 nM
same,TGI,[18],690 nM
same,GI50,[19],11900 nM
same,TGI,[19],> 89600 nM
same,GI50,[20],789 nM
same,TGI,[20],4420 nM
same,GI50,[21],354 nM
same,TGI,[21],1940 nM
same,GI50,[22],438 nM
same,TGI,[22],3640 nM
same,GI50,[23],5830 nM
same,TGI,[23],19700 nM
same,GI50,[24],1740 nM
same,TGI,[24],13300 nM
same,GI50,[25],136 nM
same,TGI,[25],271 nM
same,GI50,[26],953 nM
same,TGI,[26],> 34700 nM
same,GI50,[27],708 nM
same,TGI,[27],2070 nM
same,GI50,[28],407 nM
same,TGI,[28],1100 nM
same,GI50,[29],758 nM
same,TGI,[29],3190 nM
same,GI50,[30],5430 nM
same,TGI,[30],18100 nM
same,GI50,[31],687 nM
same,TGI,[31],2530 nM
same,GI50,[32],3140 nM
same,TGI,[32],16500 nM
same,GI50,[33],429 nM
same,TGI,[33],1660 nM
same,GI50,[34],741 nM
same,TGI,[34],2730 nM
same,GI50,[35],1270 nM
same,TGI,[35],3920 nM
same,GI50,[36],264 nM
same,TGI,[36],935 nM
same,GI50,[37],371 nM
same,TGI,[37],1120 nM
same,GI50,[38],14000 nM
same,TGI,[38],31600 nM
same,GI50,[39],201 nM
same,TGI,[39],641 nM
same,GI50,[40],499 nM
same,TGI,[40],2000 nM
same,GI50,[41],611 nM
same,TGI,[41],1760 nM
same,GI50,[42],606 nM
same,TGI,[42],1760 nM
same,GI50,[43],265 nM
same,TGI,[43],804 nM
same,GI50,[44],569 nM
same,TGI,[44],1250 nM
same,GI50,[45],4350 nM
same,TGI,[45],18300 nM
same,GI50,[46],461 nM
same,TGI,[46],2060 nM
same,GI50,[47],633 nM
same,TGI,[47],2220 nM
same,GI50,[48],551 nM
same,TGI,[48],1890 nM
same,GI50,[49],707 nM
same,TGI,[49],8600 nM
same,GI50,[50],378 nM
same,TGI,[50],1120 nM
same,GI50,[51],976 nM
same,TGI,[51],2380 nM
same,GI50,[52],268 nM
same,TGI,[52],971 nM
same,GI50,[53],1770 nM
same,TGI,[53],4750 nM
same,GI50,[54],1020 nM
same,TGI,[54],3540 nM
same,GI50,[55],12100 nM
same,TGI,[55],98600 nM
same,GI50,[56],391 nM
same,TGI,[56],1820 nM
same,GI50,[57],1160 nM
same,TGI,[57],5580 nM
same,GI50,[58],5270 nM
same,TGI,[58],24200 nM
